In patent US11135320B2, “Radioligands for pretargeted pet imaging and methods of their therapeutic use” (priority 2015, dated 2021):

Columns and labels:
[1] = system: subcutaneous SW1222 xenografts; assay: Pretargeted PET imaging, control experiments; assay type: in vivo, athymic nude mice
Method: Due to its pharmacokinetic profile, ^64Cu-Tz-SarAr was selected for in vivo pretargeting experiments. To this end, athymic nude mice bearing A33 antigen-expressing SW1222 human colorectal carcinoma tumors were first injected with huA33-TCO (100 μg). After a 24 h interval during which huA33-TCO accumulated at the tumor and cleared from the blood, the mice were injected with ^64Cu-Tz-SarAr (400-450 μCi). The specific activity of the radiotracer was adjusted using cold ^natCu-Tz-SarAr such that the molar ratio of Tz-SarAr:huA33-TCO≈1:1. […] At 1 h post-injection, the activity concentration in the tumor (5.63±0.67% ID/g) was the highest of all tissues surveyed, while the blood (4.2±0.8% ID/g) and kidneys (3.1±0.3% ID/g) were the healthy organs with the highest background activity concentrations. […]
All pretargeted PET imaging experiments were performed on an Inveon PET/CT scanner (Siemens Healthcare Global). […] Static scans were recorded at various time points after injection with a minimum of 30 million coincident events (10-30 min total scan time). […] Activity concentrations (percentage of dose per gram of tissue [% ID/g]) and maximum intensity projections were determined by conversion of the counting rates from the reconstructed images. All of the resulting PET images were analyzed using ASIPro VM™ software. […]

[2] = mouse, in vivo; cited from earlier work

SMILES	uptake by the tumor (control PET imaging) ([1]; ^64Cu-Tz-SarAr alone, no antibody)	uptake by the tumor (control PET imaging) ([1]; ^64Cu-Tz-SarAr with unmodified huA33)	t1/2 of clearance through the intestinal tract [2] [h]
NC12CNCCNCC(NCc3ccc(CNC(=O)CCCC(=O)NCc4ccc(-c5nncnn5)cc4)cc3)(CNCCNC1)CNCCNC2.[64Cu+2] [^64Cu-Tz-SarAr]	less than 0.5 % ID/g	less than 0.5 % ID/g	
O=C([O-])CN1CCN(CC(=O)[O-])CC(Cc2ccc(NC(=O)CCCC(=O)NCc3ccc(-c4nncnn4)cc3)cc2)N(CC(=O)[O-])CC1.[64Cu+2] (stereo not drawn) [^64Cu-Tz-NOTA]			~4
